Assay results taken from patent publication US9951064B2, “Azaindazole compounds as inhibitors of T790M containing EGFR mutants” (Genentech, Inc., priority 2013, dated 2018).

How the values were obtained:
EGFR T790M L858R = target: T1, EGFR T790M L858R (Homo sapiens, UniProt P00533, L858R/T790M); assay: EGFR T790M L858R biochemical assay (Caliper mobility shift); conditions: 5 μM ATP; apparent Ki (Morrison fit) converted by Cheng-Prusoff, Km of ATP 1.3 μM
T1 construct: purchased Life Technologies PV4879
T1 sequence (P00533 25-1210 T790M/L858R): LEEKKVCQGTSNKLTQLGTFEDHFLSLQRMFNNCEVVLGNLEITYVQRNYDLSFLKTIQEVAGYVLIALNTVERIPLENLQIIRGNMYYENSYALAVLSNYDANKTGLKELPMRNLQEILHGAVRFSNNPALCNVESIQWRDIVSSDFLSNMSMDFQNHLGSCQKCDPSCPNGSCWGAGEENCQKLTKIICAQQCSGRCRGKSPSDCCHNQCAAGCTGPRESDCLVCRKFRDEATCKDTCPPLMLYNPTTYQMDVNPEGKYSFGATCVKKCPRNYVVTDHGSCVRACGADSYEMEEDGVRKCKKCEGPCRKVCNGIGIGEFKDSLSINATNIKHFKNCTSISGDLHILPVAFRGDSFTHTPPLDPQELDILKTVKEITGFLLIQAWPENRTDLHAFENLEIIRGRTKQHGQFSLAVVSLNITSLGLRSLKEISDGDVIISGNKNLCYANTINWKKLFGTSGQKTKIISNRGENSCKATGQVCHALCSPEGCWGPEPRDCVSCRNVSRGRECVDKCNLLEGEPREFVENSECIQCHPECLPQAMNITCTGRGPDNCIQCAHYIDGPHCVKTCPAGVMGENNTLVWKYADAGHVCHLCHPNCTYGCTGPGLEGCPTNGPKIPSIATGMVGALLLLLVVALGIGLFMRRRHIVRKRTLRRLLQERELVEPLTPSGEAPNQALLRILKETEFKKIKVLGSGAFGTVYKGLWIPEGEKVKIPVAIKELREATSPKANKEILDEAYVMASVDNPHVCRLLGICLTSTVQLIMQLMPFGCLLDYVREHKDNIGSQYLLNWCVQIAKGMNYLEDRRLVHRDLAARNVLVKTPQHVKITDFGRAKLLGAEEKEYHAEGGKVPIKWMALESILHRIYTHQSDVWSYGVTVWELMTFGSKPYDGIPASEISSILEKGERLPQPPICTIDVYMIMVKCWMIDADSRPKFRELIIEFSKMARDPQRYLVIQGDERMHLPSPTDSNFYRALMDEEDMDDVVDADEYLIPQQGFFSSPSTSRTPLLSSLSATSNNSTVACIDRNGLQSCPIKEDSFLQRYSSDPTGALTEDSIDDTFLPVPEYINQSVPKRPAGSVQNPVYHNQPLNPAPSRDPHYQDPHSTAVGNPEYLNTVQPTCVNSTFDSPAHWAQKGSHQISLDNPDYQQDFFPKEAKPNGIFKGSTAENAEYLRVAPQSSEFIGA
Method in brief: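 Caliper mobility-shift read-out, electrophoretic separation of substrate from product, after a 30-minute kinase reaction at 22 °C. EDTA at 80 mM terminates each reaction.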

[1] = target: T2, phosphor-EGFR in H1975(L585R/T790M) mutant EGFR expressing cells (Homo sapiens, UniProt P00533, L858R/T790M); assay: H1975 pEGFR MSD cellular assay; assay type: cell-based; conditions: NCI-H1975 cells, serum starved, 1 hour compound incubation, pEGFR Tyr1068 MSD; read-out: HI975 pEGFR EC50
T2 construct: host or cells: NCI-H1975
T2 sequence (P00533 25-1210 T790M/L858R): as above
Method in brief: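 Phospho-EGFR read by MSD electrochemiluminescence: capture with anti-pEGFR antibody (overnight, 4° C), detection with SULFO-TAG anti-total EGFR (1 hour, room temperature). Before lysis, H1975 cells starved of serum overnight got compound for 1 hour at 37° C, 0.5% DMSO final. EC50 via four-parameter logistic regression of percent inhibition.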

[2] = tested on: H1975 (EGFR T790M/L858R) cell proliferation; assay: H1975 proliferation assay (Cell Titer-Glo); assay type: cell-based; conditions: Homo sapiens, NCI-H1975, 72 h, NCI-H1975 cells, 72 hour incubation, read-out: H1975 antiproliferative EC50
Procedure: H1975 Proliferation Assays
All cell culture reagents were purchased from Invitrogen/Gibco. Cells are cultured at 37° C. at 5% CO2 and split as recommended by ATCC.

EGFR del746-750 T790M = target: T3, EGFR del746-750 T790M (Homo sapiens, UniProt P00533, DEL746-750/T790M); assay: EGFR del746-750 T790M biochemical assay (Caliper mobility shift); conditions: 5 μM ATP; apparent Ki (Morrison fit) converted by Cheng-Prusoff, Km of ATP 2.1 μM; read-out: EGFR(T790M/d746-750) Ki
T3 construct: purchased Carna Biosciences 08-528
T3 sequence (P00533 with tags, fused parts or gaps DEL746-750/T790M limits assumed): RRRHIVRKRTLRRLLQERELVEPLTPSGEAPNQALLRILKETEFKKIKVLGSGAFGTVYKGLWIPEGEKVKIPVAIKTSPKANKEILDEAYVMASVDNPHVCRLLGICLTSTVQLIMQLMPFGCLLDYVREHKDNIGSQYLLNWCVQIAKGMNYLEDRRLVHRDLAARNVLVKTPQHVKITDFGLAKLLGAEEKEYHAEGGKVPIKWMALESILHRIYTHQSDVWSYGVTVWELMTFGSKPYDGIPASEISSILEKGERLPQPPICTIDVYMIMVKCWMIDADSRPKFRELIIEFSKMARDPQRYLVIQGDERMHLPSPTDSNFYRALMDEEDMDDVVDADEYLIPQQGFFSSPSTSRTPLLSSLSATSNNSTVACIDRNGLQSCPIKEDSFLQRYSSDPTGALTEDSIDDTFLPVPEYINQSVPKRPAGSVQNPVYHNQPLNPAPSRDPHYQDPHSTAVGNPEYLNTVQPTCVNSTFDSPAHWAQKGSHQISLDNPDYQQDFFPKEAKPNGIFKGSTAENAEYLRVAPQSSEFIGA
Method in brief: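 Caliper mobility-shift read-out, with product electrophoretically resolved from substrate and measured. Reactions were quenched with 80 mM EDTA after 30 min at 22 °C.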

Ki (EGFR T790M L858R) [nM] | EC50 [1] [nM] | EC50 [2] [nM] | Ki (EGFR del746-750 T790M) [nM] | SMILES
1.4 | 38.6 | 159 | 1.6 | CC(C)n1nc(N2CC3(COC3)C2)c2cnc(Nc3ccnc(N4CCC(O)C(C)(C)C4)n3)cc21 (stereo not shown) [Example 3, 1-(4-((1-Isopropyl-3-(2-oxa-6-azaspiro[3.3]heptan-6-yl)-1H-pyrazolo[4,3-c]pyridin-6-yl)amino)pyrimidin-2-yl)-3,3-dimethylpiperidin-4-ol]
1.3 | 30.3 | 499 | 1.3 | CC(C)n1nc(N2CCCC2)c2cnc(Nc3ccnc(N4CCC(O)C(C)(C)C4)n3)cc21 (stereo not shown) [Example 8, 1-(4-((1-Isopropyl-3-(pyrrolidin-1-yl)-1H-pyrazolo[4,3-c]pyridin-6-yl)amino)pyrimidin-2-yl)-3,3-dimethylpiperidin-4-ol]
1.2 | 26.6 | 380 | 2.8 | COC1CCN(c2nccc(Nc3cc4c(cn3)c(N3CCCC3)nn4C(C)C)n2)CC1 [Example 15, 1-Isopropyl-N-(2-(4-methoxypiperidin-1-yl)pyrimidin-4-yl)-3-(pyrrolidin-1-yl)-1H-pyrazolo[4,3-c]pyridin-6-amine]
9.2 | 2060 | > 10000 | 9.8 | COC1CCN(c2nccc(Nc3cc4c(cn3)c(N)nn4C[C@H]3CC[C@H](N)CC3)n2)CC1 [Example 24, 1-(4-(Aminocyclohexyl)methyl)-N^6-[2-(4-methoxypiperidin-1-yl)-pyrimidin-4-yl]-1H-pyrazolo[4,3-c]pyridine-3,6-diamine]

The next lines start with the compound.

SMILES | Ki (EGFR T790M L858R) [nM] | EC50 [1] [nM] | EC50 [2] [nM] | Ki (EGFR del746-750 T790M) [nM]
CC(C)n1nc(NCCO)c2cnc(Nc3ccnc(-c4cnn(S(=O)(=O)C5CC5)c4)n3)cc21 [Example 6, 2-((6-((2-(1-(Cyclopropylsulfonyl)-1H-pyrazol-4-yl)pyrimidin-4-yl)amino)-1-isopropyl-1H-pyrazolo[4,3-c]pyridin-3-yl)amino)ethanol] | 0.9 | 73.8 | 877 | 1.2
Cc1cn[nH]c1-c1nn(C(C)C)c2cc(Nc3ccnc(N4CCC(O)C(C)(C)C4)n3)ncc12 (stereo not shown) [Example 10, 1-(4-((1-Isopropyl-3-(4-methyl-1H-pyrazol-5-yl)-1H-pyrazolo[4,3-c]pyridin-6-yl)amino)pyrimidin-2-yl)-3,3-dimethylpiperidin-4-ol] | 7.5 | 349 | 1710 | 32.4
CCS(=O)(=O)n1cc(-c2nccc(Nc3cc4c(cn3)c(N3CC(C(=O)N(C)C)C3)nn4C(C)C)n2)cn1 [Example 17, 1-(6-(2-(1-(Ethylsulfonyl)-1H-pyrazol-4-yl)pyrimidin-4-ylamino)-1-isopropyl-1H-pyrazolo[4,3-c]pyridin-3-yl)-N, N-dimethylazetidine-3-carboxamide] | 0.7 | 19.2 | 236 | 0.8
CC(C)n1nc(N2CCC(O)C2)c2cnc(Nc3ccnc(-c4cnn(S(=O)(=O)C5CC5)c4)n3)cc21 (stereo not shown) [Example 18, 1-(6-(2-(1-(Cyclopropylsulfonyl)-1H-pyrazol-4-yl)pyrimidin-4-ylamino)-1-isopropyl-1H-pyrazolo[4,3-c]pyridin-3-yl) pyrrolidin-3-ol] | 0.8 | 7.5 | 201 | 0.6
CCC(C)n1nc(N2CCNC2=O)c2cnc(Nc3ccnc(-c4cnn(S(=O)(=O)C5CC5)c4)n3)cc21 (stereo not shown) [Example 25, 1-(1-(sec-Butyl)-6-((2-(1-(cyclopropylsulfonyl)-1H-pyrazol-4-yl)pyrimidin-4-yl)amino)-1H-pyrazolo[4,3-c]pyridin-3-yl)imidazolidin-2-one] | 1 | 38.3 | 138 | 2.5
CC(C)n1nc(NC2COC2)c2cnc(Nc3ccnc(-c4cnn(S(=O)(=O)C5CC5)c4)n3)cc21 [Example 35, N^6-(2-(1-(cyclopropylsulfonyl)-1H-pyrazol-4-yl)pyrimidin-4-yl)-1-isopropyl-N^3-(oxetan-3-yl)-1H-pyrazolo[4,3-c]pyridine-3,6-diamine] | 0.7 | 33.5 | 167 | 0.5
